The subject of assay [1] is mitochondrial uniporter (Ca2+ uptake in mitochondria). Briefly: Ca2+ uptake/accumulation in isolated mitochondria. The following applies: no UV; mean ± SEM of 3 to 5 experiments. In kind it is biochemical, rat. On the procedure: (§1) Sarcoplasmic reticulum (SR) membranes were prepared from rabbit fast twitch skeletal muscle as described by Saito [Saito et al.: J. Cell Biol. 99 (1984) 875-85]. Mitochondria were isolated from rat liver as described by us previously [Gincel D. et al.: Biochem J. 358 (2001) 147-55]. VDAC was purified by a method developed in our laboratory, using columns of hydroxyapatite and reactive red agarose [Gincel D. et al.: J. Bioenerget. Biomembr. 32 (2000) 571-83].
Ca^2+-accumulation in freshly prepared mitochondria (0.5 mg/ml) was assayed for 1 to 20 minutes at 30° C. in the presence of 225 mM mannitol, 75 mM sucrose, 120 μM CaCl2 (containing 3×10^4 cpm/nmol ^45Ca^2+), 5 mM HEPES/KOH pH 7.0, and 5 mM succinate with 0.1 mM Pi, or 4 mM MgCl2 with 3 mM ATP. The Ca^2+-uptake was terminated by rapid Millipore filtration, followed by a wash with 5 ml of 0.15 M KCl. The Ca^2+-accumulation in SR was determined as described previously [Shoshan-Barmatz V. & Shaineberg A.: Biochim. Biophys. Acta 1065 (1991) 82-8]. Electron transport from succinate to cytochrome c was described in above cited article [Gincel D. et al.: J. Bioenerget. Biomembr. 32 (2000) 571-83].
The effect of AzRu on mitochondrial process of electron transport from the donor succinate to the acceptor cytochrome c was characterized as described above. Although said electron transfer involves several dozens electron transfer carriers, this reaction was not affected by azido-ruthenium of this invention.
(§2) The hexavalent RuR and the trivalent Ru360 have been employed in various studies as inhibitors of Ca^2+-dependent reactions. As shown here, even with no photoactivation, AzRu, in contrast to RuR and Ru360, was effective in inhibiting the SR Ca^2+-pump (Table 3). […] This may open the way to inhibit other Ca^2+-dependent activities that are not sensitive to RuR, such as the plasma membrane Ca^2+-ATPase. […] RuR was employed to improve mitochondrial production in ischemic reperfused pig myocardium, was employed in the nervous system to follow neuronal death progress and can act as an anti-oxidant in certain conditions. Considering the potent activity of AzRu in RuR-insensitive reactions (see Table 3), its applications in various biological studies should be explored. Ca^2+ accumulation in SR and mitochondria was assayed as described above in the absence and presence of different concentrations of RuR (0.05-100 μM), Ru360 (0.01-100 μM) or AzRu (0.1-100 μM). The concentration required for 50% inhibition (IC50) was derived from the plot of Ca^2+ accumulation activity or ryanodine binding as a function of the reagent concentration. The results are the mean±SEM of 3 to 5 experiments (Table 3).

Assay [2] deals with T1, ryanodine receptor (RyR) / Ca2+-release channel (Oryctolagus cuniculus, UniProt P11716).
T1 construct: from tissue; host or cells: rabbit fast twitch skeletal muscle SR membranes
T1 sequence (P11716 whole entry): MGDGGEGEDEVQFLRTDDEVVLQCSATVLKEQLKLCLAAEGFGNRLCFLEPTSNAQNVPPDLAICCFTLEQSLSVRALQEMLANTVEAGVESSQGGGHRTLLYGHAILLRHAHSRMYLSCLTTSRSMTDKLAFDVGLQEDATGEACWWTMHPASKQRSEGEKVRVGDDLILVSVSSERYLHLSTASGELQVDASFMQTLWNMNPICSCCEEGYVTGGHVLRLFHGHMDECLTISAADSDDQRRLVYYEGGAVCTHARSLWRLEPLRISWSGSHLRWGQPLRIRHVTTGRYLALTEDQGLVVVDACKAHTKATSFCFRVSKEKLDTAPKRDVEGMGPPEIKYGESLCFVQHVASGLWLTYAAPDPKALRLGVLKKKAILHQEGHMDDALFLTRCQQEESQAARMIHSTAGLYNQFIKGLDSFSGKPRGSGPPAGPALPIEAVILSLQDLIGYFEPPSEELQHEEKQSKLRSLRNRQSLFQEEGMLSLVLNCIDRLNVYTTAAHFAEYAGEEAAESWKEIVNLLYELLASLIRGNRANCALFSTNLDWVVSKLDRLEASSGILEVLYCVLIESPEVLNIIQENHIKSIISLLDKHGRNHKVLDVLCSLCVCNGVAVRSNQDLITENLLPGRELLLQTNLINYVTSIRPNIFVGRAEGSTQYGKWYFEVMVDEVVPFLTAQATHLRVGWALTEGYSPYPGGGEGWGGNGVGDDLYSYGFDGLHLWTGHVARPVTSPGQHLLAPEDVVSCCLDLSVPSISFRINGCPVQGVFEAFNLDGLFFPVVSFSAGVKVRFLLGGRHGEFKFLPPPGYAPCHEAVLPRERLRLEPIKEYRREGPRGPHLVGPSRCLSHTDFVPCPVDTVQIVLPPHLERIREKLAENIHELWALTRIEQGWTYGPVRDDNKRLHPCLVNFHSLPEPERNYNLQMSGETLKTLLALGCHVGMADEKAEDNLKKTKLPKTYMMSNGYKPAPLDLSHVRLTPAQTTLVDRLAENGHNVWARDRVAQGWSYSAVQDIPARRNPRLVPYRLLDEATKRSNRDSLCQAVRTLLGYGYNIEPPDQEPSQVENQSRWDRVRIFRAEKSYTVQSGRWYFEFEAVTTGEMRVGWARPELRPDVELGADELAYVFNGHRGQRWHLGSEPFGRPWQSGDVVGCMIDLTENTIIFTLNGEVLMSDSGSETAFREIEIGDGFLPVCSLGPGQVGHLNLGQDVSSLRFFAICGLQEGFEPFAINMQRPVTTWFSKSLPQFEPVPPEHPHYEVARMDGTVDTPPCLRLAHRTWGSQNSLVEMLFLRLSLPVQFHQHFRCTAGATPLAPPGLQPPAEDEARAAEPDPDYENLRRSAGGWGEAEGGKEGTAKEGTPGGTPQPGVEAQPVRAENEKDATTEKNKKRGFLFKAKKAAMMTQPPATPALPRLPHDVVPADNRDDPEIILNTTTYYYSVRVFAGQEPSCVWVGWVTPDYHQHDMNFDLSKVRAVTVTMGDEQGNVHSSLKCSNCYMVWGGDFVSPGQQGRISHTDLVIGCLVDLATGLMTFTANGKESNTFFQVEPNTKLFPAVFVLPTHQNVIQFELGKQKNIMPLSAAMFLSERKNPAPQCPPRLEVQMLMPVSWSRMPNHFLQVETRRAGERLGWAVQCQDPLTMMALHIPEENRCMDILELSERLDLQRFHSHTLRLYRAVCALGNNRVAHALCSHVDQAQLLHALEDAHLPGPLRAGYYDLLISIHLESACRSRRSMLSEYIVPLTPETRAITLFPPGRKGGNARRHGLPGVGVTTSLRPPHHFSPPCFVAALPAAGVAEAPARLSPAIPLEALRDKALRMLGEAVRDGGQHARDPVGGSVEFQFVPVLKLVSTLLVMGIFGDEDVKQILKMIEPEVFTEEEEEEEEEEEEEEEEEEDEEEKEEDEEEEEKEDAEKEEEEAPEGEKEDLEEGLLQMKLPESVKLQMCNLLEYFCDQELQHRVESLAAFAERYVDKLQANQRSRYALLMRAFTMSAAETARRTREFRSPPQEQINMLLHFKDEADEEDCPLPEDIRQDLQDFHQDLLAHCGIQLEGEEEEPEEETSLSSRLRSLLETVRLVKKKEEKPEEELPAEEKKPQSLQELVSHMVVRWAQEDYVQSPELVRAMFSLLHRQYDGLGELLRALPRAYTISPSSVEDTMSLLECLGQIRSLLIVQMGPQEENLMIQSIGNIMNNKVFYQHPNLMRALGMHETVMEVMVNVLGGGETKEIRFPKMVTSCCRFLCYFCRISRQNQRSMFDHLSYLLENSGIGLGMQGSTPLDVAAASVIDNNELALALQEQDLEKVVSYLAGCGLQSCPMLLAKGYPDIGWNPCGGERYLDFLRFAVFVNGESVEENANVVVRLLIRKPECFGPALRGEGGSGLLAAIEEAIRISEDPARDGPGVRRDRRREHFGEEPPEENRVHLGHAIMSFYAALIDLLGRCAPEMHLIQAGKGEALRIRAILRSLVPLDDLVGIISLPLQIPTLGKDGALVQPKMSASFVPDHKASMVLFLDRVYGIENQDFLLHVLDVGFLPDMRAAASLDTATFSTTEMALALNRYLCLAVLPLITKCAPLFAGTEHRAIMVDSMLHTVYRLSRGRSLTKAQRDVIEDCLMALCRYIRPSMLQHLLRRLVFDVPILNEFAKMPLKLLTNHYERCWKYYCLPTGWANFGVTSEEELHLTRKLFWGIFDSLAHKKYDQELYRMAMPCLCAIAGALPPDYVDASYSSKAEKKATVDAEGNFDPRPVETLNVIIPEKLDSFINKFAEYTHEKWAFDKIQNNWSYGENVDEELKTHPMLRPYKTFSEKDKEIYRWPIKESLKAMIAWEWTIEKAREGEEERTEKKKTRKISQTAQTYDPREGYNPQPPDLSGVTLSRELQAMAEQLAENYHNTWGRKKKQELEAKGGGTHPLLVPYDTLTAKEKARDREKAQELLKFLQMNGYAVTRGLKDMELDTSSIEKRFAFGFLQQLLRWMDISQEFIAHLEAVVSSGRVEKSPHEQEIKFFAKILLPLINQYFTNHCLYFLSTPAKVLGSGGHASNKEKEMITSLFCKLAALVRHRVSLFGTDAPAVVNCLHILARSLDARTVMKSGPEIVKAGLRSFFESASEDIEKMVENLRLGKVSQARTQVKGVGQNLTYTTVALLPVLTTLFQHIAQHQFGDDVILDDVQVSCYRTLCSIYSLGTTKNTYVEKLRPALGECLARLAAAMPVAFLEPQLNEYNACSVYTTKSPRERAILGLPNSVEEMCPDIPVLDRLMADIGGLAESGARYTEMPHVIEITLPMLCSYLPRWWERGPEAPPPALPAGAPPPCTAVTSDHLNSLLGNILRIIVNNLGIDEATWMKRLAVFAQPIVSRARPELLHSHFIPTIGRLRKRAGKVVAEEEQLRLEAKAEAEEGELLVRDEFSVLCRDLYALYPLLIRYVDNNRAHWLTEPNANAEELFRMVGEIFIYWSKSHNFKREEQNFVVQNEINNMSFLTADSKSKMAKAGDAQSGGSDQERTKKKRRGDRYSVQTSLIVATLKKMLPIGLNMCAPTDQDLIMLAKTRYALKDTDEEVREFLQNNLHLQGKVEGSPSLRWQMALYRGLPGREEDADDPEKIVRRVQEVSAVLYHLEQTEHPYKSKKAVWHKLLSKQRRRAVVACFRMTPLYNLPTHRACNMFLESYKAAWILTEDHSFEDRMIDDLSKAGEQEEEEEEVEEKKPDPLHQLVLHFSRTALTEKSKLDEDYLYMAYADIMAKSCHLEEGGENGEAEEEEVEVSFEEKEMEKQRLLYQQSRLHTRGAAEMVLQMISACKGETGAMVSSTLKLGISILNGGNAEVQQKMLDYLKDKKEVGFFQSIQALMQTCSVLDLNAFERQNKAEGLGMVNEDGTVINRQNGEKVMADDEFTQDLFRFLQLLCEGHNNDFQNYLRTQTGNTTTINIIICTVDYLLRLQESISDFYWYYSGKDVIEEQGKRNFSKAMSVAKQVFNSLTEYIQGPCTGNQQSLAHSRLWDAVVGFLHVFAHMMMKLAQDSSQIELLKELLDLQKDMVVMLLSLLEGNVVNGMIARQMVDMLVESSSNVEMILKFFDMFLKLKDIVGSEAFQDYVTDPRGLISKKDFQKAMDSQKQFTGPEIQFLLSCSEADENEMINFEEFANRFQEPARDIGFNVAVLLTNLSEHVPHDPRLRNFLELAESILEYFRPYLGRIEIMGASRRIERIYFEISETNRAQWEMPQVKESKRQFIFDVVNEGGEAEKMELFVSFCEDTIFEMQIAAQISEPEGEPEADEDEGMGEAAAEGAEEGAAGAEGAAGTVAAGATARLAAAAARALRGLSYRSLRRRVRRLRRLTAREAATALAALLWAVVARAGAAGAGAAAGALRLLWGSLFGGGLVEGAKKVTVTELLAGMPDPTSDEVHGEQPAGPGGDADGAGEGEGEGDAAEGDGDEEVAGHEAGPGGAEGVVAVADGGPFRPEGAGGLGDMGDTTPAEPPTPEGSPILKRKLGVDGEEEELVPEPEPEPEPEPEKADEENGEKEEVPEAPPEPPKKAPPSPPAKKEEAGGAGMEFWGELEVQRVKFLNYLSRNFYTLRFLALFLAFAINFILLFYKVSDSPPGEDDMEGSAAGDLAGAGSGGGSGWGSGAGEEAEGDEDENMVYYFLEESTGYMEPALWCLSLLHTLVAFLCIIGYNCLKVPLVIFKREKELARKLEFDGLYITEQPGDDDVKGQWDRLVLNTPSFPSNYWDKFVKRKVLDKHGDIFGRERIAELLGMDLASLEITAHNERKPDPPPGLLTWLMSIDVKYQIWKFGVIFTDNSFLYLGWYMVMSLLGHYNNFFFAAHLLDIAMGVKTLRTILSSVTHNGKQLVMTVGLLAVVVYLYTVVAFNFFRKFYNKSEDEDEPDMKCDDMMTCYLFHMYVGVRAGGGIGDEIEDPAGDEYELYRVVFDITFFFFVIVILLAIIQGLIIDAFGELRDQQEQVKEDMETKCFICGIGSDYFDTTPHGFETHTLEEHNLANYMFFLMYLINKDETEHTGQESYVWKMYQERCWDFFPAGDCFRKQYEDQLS
Put plainly: [3H]ryanodine binding to SR membranes. As to conditions: no UV; mean ± SEM of 3 to 5 experiments. Also on record: species or system rabbit. On the procedure:
as §1
For the determination of [^3H]ryanodine binding, SR membranes were incubated for 20-60 min at 37° C. in a standard binding solution containing 1M NaCl, 20 mM MOPS (pH 7.4), 50 μM free Ca^2+ and 20 nM [^3H]ryanodine. Unbound ryanodine was separated from protein-bound ryanodine by vacuum filtration of the sample through nitrocellulose filters (0.45 μm), followed by two washes with 4 ml ice-cold buffer containing 0.2 M NaCl, 10 mM MOPS (pH 7.4) and 50 μM CaCl2. The retained radioactivity in the dried filters was determined by liquid scintillation counting. Specific binding of [^3H]ryanodine was defined as the difference between the binding in the presence of 20 nM [^3H]ryanodine and in the presence of 20 μM unlabeled ryanodine.
as §2

The subject of assay [3] is U-937 human monocytic cell line. Put plainly: STS-induced apoptotic cell death of U-937 cells (acridine orange/ethidium bromide staining). As to conditions: STS 1.25 μM, no AzRu. It is filed as cell-based. As to the method: The U-937 human monocytic cell line was grown under an atmosphere of 95% air and 5% CO2 in RPMI 1640 supplemented with 10% fetal calf serum (FCS), 1 mM L-glutamine, 100 U/ml penicillin, and 100 μg/ml streptomycin. Cells were plated at a density of 5.4×10^4 cells/cm^2 in 24-well plates and then incubated with or without AzRu for 18 hr before exposure to 1.25 μM staurosporine (STS) to induce apoptosis. Cell viability was analyzed 5 and 7 hrs after STS addition by staining with 100 μg/ml acridine orange (AcOr) and 100 μg/ml ethidium bromide (EtBr) in PBS. The cells were then visualized by fluorescence microscopy (Olympus IX51) and images were recorded on an Olympus DP70 camera, using an SWB filter.
AzRu had no effect on the viability of the cells that were not exposed to STS. In FIG. 13 A, U-937 cells were incubated without (a, c) or with AzRu (10 μM) (b,d) for 18 hrs and thereafter were exposed to STS (1.25 μM) (c and d). After five hours the cells were stained with acridine orange and ethidium bromide. Arrows indicate cells in early apoptotic state, represented as degraded nucleus, but with intact cell membrane (stained by acridine orange). Arrowheads indicate a late apoptotic state, as shown by the presence of a degraded nucleus (stained by both acridine orange and ethidium bromide). Scale bar, 20 μm. In FIG. 13 B, quantitative analysis of apoptotic cell death in control cells and cells exposed to AzRu was assessed 5 and 7 hr after their exposure to STS (1.25 by ANOVA and t-test. P<0.001 was considered statistically significant (***). Data are the means±SEM, n=3. In each independent experiment, approximately 200 cells were counted for each treatment.

Turning to `Cl.Cl.Cl.Cl.Cl.Cl.N.N.N.N.N.N.N.N.N.N.N.N.N.N.[O-2].[O-2].[Ru+3].[Ru+3].[Ru+4]` [RuR, ruthenium red, reference compound], the figures for the IC50 in assay [1] and in assay [2] were 0.16 ± 0.03 µM and 7.2 ± 0.55 µM, respectively.
As to `CN[C@@H]1C[C@H]2O[C@@](C)([C@@H]1OC)n1c3ccccc3c3c4c(c5c6ccccc6n2c5c31)C(=O)NC4` [STS, staurosporine, reference compound], the “Apoptotic cell death (% of the cells)” value in assay [3] (5 hrs exposure) is on record as “about 42%”; in assay [3] (7 hrs exposure) it was roughly 76%.
As for Ru360 [reference compound], the 50% inhibitory concentration (IC50) was 0.067 ± 0.008 µM in assay [1] and 14.8 ± 2.8 µM in assay [2].

As usually defined, the IC50 is the midpoint of a concentration-inhibition curve. A lower IC50 goes with inhibition by little substance.

Values taken from patent US8034314B2, “Photoreactive compound specifically binding to calcium binding proteins” (priority 2004, dated 2011).
